For assay [1], the target named is T1, GST-fused lck SH2 domain (Homo sapiens, UniProt P06239).
T1 construct: GST (Glutathione transferase)-fused lck SH2 domain
As to the kind of experiment: Inhibition of in vitro binding of lck SH2 domain to its cognate pYEEI peptide (BIAcore 2000). The note with it: IC50 class for inhibition of GST-lckSH2 binding to immobilized biotinylated […]pYEEIPI peptide; read-out: BOND DEGREE WITH SH2 OF 1ck. The method, then: The present inventors investigated the inhibition activity of phenyl derivatives on the interaction of GST (Glutathione transferase)-fused lck SH2 domain and a peptide […]pYEEIPI (comprising the sequence PYEEI, a cognate peptide of Lck SH2) by using a real time sensorgram (BIAcore 2000).
At first, the biotinylated peptide was fixed on the surface of BIAcore analysis apparatus and then GST-lckSH2 protein was injected over the surface of the immobilized peptides. The binding of GST-lck SH2 with the peptide is represented as the resonance units (referred as “RU” hereinafter) and 1,000 RU corresponds to a change in surface concentration of 1 ng/mm^2. The binding of GST-lck with the fixed peptide causes the change of refractory index, leading to the increase of RU. In the mean time, when the binding of GST-lck with the fixed peptide is inhibited, RU decreases. Those results are represented in Table 1.

Assay [2] deals with collagen-induced rheumatoid arthritis. In words: Inhibition of collagen-induced rheumatoid arthritis in DBA1/LacJ mice. Format: in vivo, mouse. Also noted: key: sum of 4 leg scores (0-4 each), max 16. The note with it: maximum 16, mean ± standard deviation. The method, then:
After 2 weeks, booster immunization was carried out with 50 μg C II/IFA. From the 3rd week after primary immunization, compounds of the present invention were injected daily into peritoneal cavities of 6-8 mice per group for 15-20 days.
The vehicle control groups were injected daily with 100 μl of 5% ethanol-olive oil mixture in total 15-20 times. Widely used anti-rheumatic drug, Methotrexate, was dissolved in PBS and then injected to mice at 1 mg/kg/day every other day in total 8-10 times. Meanwhile, the compounds of the invention were dissolved in ethanol and then mulsified in olive oil, in which the final ethanol concentration was adjusted to 5% and the compounds of this invention was 50 mg/kg/day.
From the 3rd week after primary immunization, the extent of edema and the joint swelling was monitored everyday to determine arthritic index. Arthitic index is the sum of the arthritic scores of all 4 legs and, therefore, maximum arthritis index of 16 can be achieved (e.g., [4 (maximum arthritic score)/leg]×[4 legs/mouse]=16 (maximum arthritis index/mouse)). […] was presented by the mean arthritis index±standard deviation of each mouse group.

Assay [3] relates to IL-2 promoter. As to the kind of experiment: IL-2 promoter luciferase reporter assay in anti-CD3 activated Jurkat cells. Format: cell-based. The note with it: Homo sapiens, TCR-induced (anti-CD3) IL-2 promoter luciferase, 2 h pre-incubation. As to the method:
In order to confirm whether the compounds of the invention can pass through a cell membrane and inhibit the expression of IL-2 gene leading to T-cell proliferation, the present inventors firstly confirmed T-cell activity by detecting the activity of the luciferase fused on the downstream of IL-2 promoter.
To investigate the activity of IL-2 promoter, Jurkat cells (1×10^6) were transfected with a IL-2 reporter plasmids using Superfect™ (Qiagen Inc.). After 24 hours of transfection, Jurkat cells were pre-incubated with compounds of various concentrations (1 uM-50 uM) for 2 hours and further cultured on 35mm plate pre-coated with 5 ug/ml of anti-CD3 antibody, resulting in T cell activation. The luciferase activity was measured using Berthold luminometer LB953. The IC50 (50% inhibition concentration) of the compounds of the invention on TCR-induced IL-2 promoter activation are shown in Table 2.
Background: In a reporter assay the amount or activity of a reporter protein is the signal.

[4] abbreviates: 50 mg/kg/day i.p. daily, day 15 after treatment (day 36 after primary immunization), sum of scores of four legs.

Molecules are shown by their SMILES.

T1 sequence (P06239 127-224 limits assumed): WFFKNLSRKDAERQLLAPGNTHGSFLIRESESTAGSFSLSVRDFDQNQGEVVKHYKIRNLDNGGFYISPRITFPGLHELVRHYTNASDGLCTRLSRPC

In the case of `CCOC(=O)[C@@H](Cc1ccc(O)c(O)c1)NC(=O)/C=C/c1ccc(O)c(O)c1` [Example 3, 3-(3,4-dihydroxy-phenyl)-(R)-2-[3-trans-(3,4-dihydroxy-phenyl)-acryloylamino]-propionic acid ethyl ester], the IC50 in assay [1] was below 10 µM; in assay [3], 4.8 µM. In assay [2] (setting [4]), this compound had an Arthritis index of 4.5 ± 0.8.

For the compound `CCCOC(=O)[C@@H](Cc1ccc(O)c(O)c1)NC(=O)/C=C/c1ccc(O)c(O)c1` [Example 4, 3-(3,4-dihydroxy-phenyl)-(R)-2-[3-trans-(3,4-dihydroxy-phenyl)-acryloylamino]-propionic acid propyl ester], the IC50 in assay [1] is below 10 µM; in assay [3], 7.8 µM. The Arthritis index in assay [2] (setting [4]) came out at 5.6 ± 0.5.

Turning to `CC(C)OC(=O)[C@@H](Cc1ccc(O)c(O)c1)NC(=O)/C=C/c1ccc(O)c(O)c1` [Example 5, 3-(3,4-dihydroxy-phenyl)-(R)-2-[3-trans-(3,4-dihydroxy-phenyl)-acryloylamino]-propionic acid isopropyl ester], the IC50 in assay [1] was below 10 µM; in assay [3], 6.5 µM. In assay [2] (setting [4]), this compound gave an Arthritis index of 4.9 ± 1.2.

For `CC(C)(C)OC(=O)[C@@H](Cc1ccc(O)c(O)c1)NC(=O)/C=C/c1ccc(O)c(O)c1` [Example 6, 3-(3,4-dihydroxy-phenyl)-(R)-2-[3-trans-(3,4-dihydroxy-phenyl)-acryloylamino]propionic acid tert-butyl ester], the IC50 is 10 to 25 µM in assay [1] and 7.8 µM in assay [3]. Moreover, in assay [2] (setting [4]), the Arthritis index is reported as 5.8 ± 0.9.

As for `NC(=O)[C@@H](Cc1ccc(O)c(O)c1)NC(=O)/C=C/c1ccc(O)c(O)c1` [Example 7], the IC50 is below 10 µM in assay [1] and 2.4 µM in assay [3]. Further, the Arthritis index in assay [2] (setting [4]) was 4.3 ± 1.5.

As for `COC(=O)[C@@H](Cc1ccc(O)c(O)c1)NC(=S)/C=C/c1ccc(O)c(O)c1` [Example 15, 3-(3,4-dihydroxy-phenyl)-(R)-2-[3-trans-(3,4-dihydroxy-phenyl)-thioacryloylamino]-propionic acid methyl ester], the IC50 in assay [1] is 10 to 25 µM; in assay [3] it was 17.1 µM. Besides, the Arthritis index in assay [2] (setting [4]) is given as 5.7 ± 0.9.

With `O=C(O)[C@@H](Cc1ccc(O)c(O)c1)NC(=S)/C=C/c1ccc(O)c(O)c1` [Example 16, 3-(3,4-dihydroxy-phenyl)-(R)-2-[3-trans-(3,4-dihydroxy-phenyl)-thioacryloylamino]-propionic acid], the IC50 in assay [1] was 25 to 50 µM; in assay [3] it was 6.7 µM. In addition, the Arthritis index in assay [2] (setting [4]) turned out to be 7.2 ± 1.2.

Turning to `CCOC(=O)[C@@H](Cc1ccc(O)c(O)c1)NC(=S)/C=C/c1ccc(O)c(O)c1` [Example 17, 3-(3,4-dihydroxy-phenyl)-(R)-2-[3-trans-(3,4-dihydroxy-phenyl)-thioacryloylamino]-propionic acid ethyl ester], the figures for the IC50 in assay [1] and in assay [3] were 10 to 25 µM and 4.6 µM, respectively. This compound also had an Arthritis index in assay [2] (setting [4]) of 5.4 ± 0.7.

Regarding `CCCOC(=O)[C@@H](Cc1ccc(O)c(O)c1)NC(=S)/C=C/c1ccc(O)c(O)c1` [Example 18, 3-(3,4-dihydroxy-phenyl)-(R)-2-[3-trans-(3,4-dihydroxy-phenyl)-thioacryloylamino]-propionic acid propyl ester], the values for the IC50 in assay [1] and in assay [3] were 10 to 25 µM and 5.6 µM, respectively. Besides, the Arthritis index in assay [2] (setting [4]) turned out to be 5.8 ± 0.3.

On to `CC(C)OC(=O)[C@@H](Cc1ccc(O)c(O)c1)NC(=S)/C=C/c1ccc(O)c(O)c1` [Example 19, 3-(3,4-dihydroxy-phenyl)-(R)-2-[3-trans-(3,4-dihydroxy-phenyl)-thioacryloylamino]-propionic acid isopropyl ester], for which the IC50 was 10 to 25 µM in assay [1] and 8.9 µM in assay [3]. In addition, the Arthritis index in assay [2] (setting [4]) is 5.1 ± 1.1.

As to `CC(C)(C)OC(=O)[C@@H](Cc1ccc(O)c(O)c1)NC(=S)/C=C/c1ccc(O)c(O)c1` [Example 20, 3-(3,4-dihydroxy-phenyl)-(R)-2-[3-trans-(3,4-dihydroxy-phenyl)-thioacrylolamino]-propionic acid tert-butyl ester], the IC50 is 25 to 50 µM in assay [1] and 21.4 µM in assay [3]. The compound further had an Arthritis index in assay [2] (setting [4]) of 6.7 ± 0.4.

Regarding `NC(=O)[C@@H](Cc1ccc(O)c(O)c1)NC(=S)/C=C/c1ccc(O)c(O)c1` [Example 21, 3-(3,4-dihydroxy-phenyl)-(R)-2-[3-trans-(3,4-dihydroxy-phenyl)-thioacryloylamino]-propioneamide], the IC50 is 10 to 25 µM in assay [1] and 7.8 µM in assay [3]. In assay [2] (setting [4]), this compound registered an Arthritis index of 5.8 ± 1.3.

Turning to `COC(=O)[C@H](Cc1ccc(O)c(O)c1)NC(=S)/C=C/c1ccc(O)c(O)c1` [Example 22], the IC50 in assay [1] was 25 to 50 µM; in assay [3], 13.9 µM. For the same compound, the Arthritis index in assay [2] (setting [4]) is on record as 6.9 ± 1.2.

Take `CCOC(=O)[C@H](Cc1ccc(O)c(O)c1)NC(=S)/C=C/c1ccc(O)c(O)c1` [Example 24, 3-(3,4-dihydroxy-phenyl)-(S)-2-[3-trans-(3,4-dihydroxy-phenyl)-thioacryloylamino]-propionic acid ethyl ester]: the IC50 in assay [1] was 10 to 25 µM; in assay [3], 10.8 µM. For the same compound, the Arthritis index in assay [2] (setting [4]) is recorded as 6.1 ± 0.6.

Turning to `CC(C)OC(=O)[C@H](Cc1ccc(O)c(O)c1)NC(=S)/C=C/c1ccc(O)c(O)c1` [Example 26, 3-(3,4-dihydroxy-phenyl)-(S)-2-[3-trans-(3,4-dihydroxy-phenyl)-thioacryloylamino]-propionic acid isopropyl ester], the results for the IC50 in assay [1] and in assay [3] were 25 to 50 µM and 18.7 µM, respectively. Also, in assay [2] (setting [4]), the Arthritis index came out at 7.0 ± 0.9.

For the compound `COC(=O)[C@@H](Cc1ccc(O)c(O)c1)N(C)C(=O)/C=C/c1ccc(O)c(O)c1` [Example 29, 3-(3,4-dihydroxy-phenyl)-(R)-2-{[3-trans-(3,4-dihydroxy-phenyl)-acryloyl]-methyl-amino}-propionic acid methyl ester], the IC50 was 10 to 25 µM in assay [1] and 7.6 µM in assay [3]. The Arthritis index in assay [2] (setting [4]) amounted to 6.1 ± 2.1.

As to `CN(C(=O)/C=C/c1ccc(O)c(O)c1)[C@H](Cc1ccc(O)c(O)c1)C(=O)O` [Example 30], the IC50 in assay [1] is 25 to 50 µM; in assay [3] it was 15.8 µM. In assay [2] (setting [4]), this compound gave an Arthritis index of 6.5 ± 0.6.

Regarding `CCOC(=O)[C@@H](Cc1ccc(O)c(O)c1)N(C)C(=O)/C=C/c1ccc(O)c(O)c1` [Example 31], the values for the IC50 in assay [1] and in assay [3] were 10 to 25 µM and 8.9 µM, respectively. The compound also came in with an Arthritis index in assay [2] (setting [4]) of 5.9 ± 2.1.

For the compound `CCCOC(=O)[C@@H](Cc1ccc(O)c(O)c1)N(C)C(=O)/C=C/c1ccc(O)c(O)c1` [Example 32], the IC50 was 10 to 25 µM in assay [1] and 9 µM in assay [3]. The same compound gave an Arthritis index in assay [2] (setting [4]) of 5.3 ± 1.7.

With `CC(C)OC(=O)[C@@H](Cc1ccc(O)c(O)c1)N(C)C(=O)/C=C/c1ccc(O)c(O)c1` [Example 33, 3-(3,4-dihydroxy-phenyl)-(R)-2-{[3-trans-(3,4-dihydroxy-phenyl)-acryloyl]-methyl-amino}-propionic acid isopropyl ester], the IC50 in assay [1] is 10 to 25 µM; in assay [3], 7.8 µM. In assay [2] (setting [4]), this compound came in with an Arthritis index of 5.7 ± 0.9.

For `COC(=O)[C@@H](Cc1ccc(O)c(O)c1)NC/C=C/c1ccc(O)c(O)c1` [Example 53, 3-(3,4-dihydroxy-phenyl)-2-[3-(3,4-dihydroxy-phenyl)-arylamino]-propionic acid methyl ester], the IC50 in assay [1] is 25 to 50 µM.

`CN(Cc1cnc2nc(N)nc(N)c2n1)c1ccc(C(=O)N[C@@H](CCC(=O)O)C(=O)O)cc1` [MTX, methotrexate, reference compound] yielded an Arthritis index in assay [2] (Methotrexate 1 mg/kg/day every other day in PBS, day 15 after treatment) of 4.0 ± 1.1.

The record behind these values is patent publication US20040082664A1, “Derivatives of hydroxyphenyl, a method for preparing thereof and their pharmaceutical composition” (priority 2002, published 2004).
